Results reported in patent US7741047B2, “Method for treating autoimmune diseases and screening method for preventive or therapeutic agent for the same” (Kowa Co., Ltd., priority 2003, dated 2010).

What was measured:
[1] = test system: MSG:B6, ERαKO, HSG, MCF-7, Jurkat, HT-29 and Colo201 cells; assay: Apoptosis induction of cultured cells, positive control groups; type: cell-based; settings: staurosporin 10^−6 M, all cell groups, not differing from one group to another
Procedure: (§1) Cells of each of the following cell lines were cultured through a routine method; mouse salivary gland cell lines (MSG:B6 and ERαKO); human salivary gland cell line (HSG); human breast cancer cultured-cell line (MCF-7); human acute T cell leukemia cell line (Jurkat); and human colon cancer cultured-cell lines (HT-29 and Colo201). The cultured cells were reacted with tamoxifen (Tam, final concentration: 10^−7 M), an antagonist of estrogen. […] Separately, the above cultured cells were reacted with staurosporin (an apoptosis inducer, final concentration: 10^−6 M), and the resultant cells were used as a positive control group. Forty-eight hours after the addition of Tam, apoptosis of the cells was determined by means of a flow cytometer, by use of Annexin-V-FITC.

[2] = test system: RHO cells (RBAp48-stable cell line from HSG cells); assay: Apoptosis of RBAp48-stable cell line after addition of IPTG; type: cell-based, human; settings: from two hours to twelve hours after addition of IPTG
Text: (§2) A stable cell line in which RBAp48 expression is stably regulated by addition of IPTG to the culture system is established by means of LacSwitch II Inducible Mammalian Expression System (STRATEGENE) through use of HSG cells (RHO cell). […] Separately, the RHO cells were investigated in terms of cell cycle related molecules (i.e., RBs, phosphorylated RB, CyclinD3, and p19ARF) in the cell lysates six hours after addition of IPTG, through western blotting by use of the corresponding antibodies (BD Transduction Laboratory). […] In addition, a nuclear extract of IPTG-added RHO cells was subjected to gel shift assay.

[3] = test system: RHO cells (RBAp48-stable cell line from HSG cells); assay: Effect of siRNA on RBAp48-induced apoptosis, Annexin-V-FITC flow cytometry; type: cell-based, human; settings: 50 nM siRNA by lipofection, IPTG 24 h after transfer, culture 8 h
Text: as §2
siRNA of RBAp48 was prepared (sense; CGAGGAAUACAAAAUAUGGTT (SEQ ID NO: 1), antisense; CCAUAUUCUGUAUUCCUCGTT (SEQ ID NO: 2)). […] The percent apoptotic cells of the cultured cells was determined by means of a flow cytometer, by use of Annexin-V-FITC.

[4] = test system: human salivary gland cell line (HSG); assay: Apoptosis induction of cultured cells, Annexin-V-FITC flow cytometry; type: cell-based; settings: Tam 10^−7 M, 48 hours after addition, compared with groups without Tam
Procedure: as §1

[5] = test system: ERαKO-mouse-derived MSG cells; assay: as above; type: cell-based; settings: Tam 10^−7 M, 48 hours
Procedure: as §1

[6] = test system: mouse salivary gland cell line MSG (B6); assay: as above; type: cell-based; settings: Tam 10^−7 M, 48 hours after addition, compared with groups without Tam
Procedure: as §1

[7] = test system: human breast cancer cultured-cell line (MCF-7); settings: MCF-7 cells, previously known; cited from earlier work
RBAp48 mRNA in HSG cells = assay: Northern blotting of genes with enhanced expression by anti-estrogen effect; type: cell-based, human

With `CN[C@@H]1C[C@H]2O[C@@](C)([C@@H]1OC)n1c3ccccc3c3c4c(c5c6ccccc6n2c5c31)C(=O)NC4` [staurosporin] the percent apoptotic cells [1] was “high”.
For `CC(C)S[C@@H]1O[C@H](CO)[C@H](O)[C@H](O)[C@H]1O` [IPTG, isopropyl-β-D-thiogalactoside], the percent apoptotic cells [2] was “increase over time”.
In the case of “RBAp48 siRNA: siRNA of RBAp48: sense CGAGGAAUACAAAAUAUGGTT (SEQ ID NO: 1), antisense CCAUAUUCUGUAUUCCUCGTT (SEQ ID NO: 2)”, the “apoptosis induced by addition of IPTG” value [3] is reported as “significantly suppressed”.
In the case of `CC/C(=C(\c1ccccc1)c1ccc(OCCN(C)C)cc1)c1ccccc1` [tamoxifen], the percent apoptotic cells [4] is reported as “significantly high”, the apoptosis induction [5] is reported as “not to be induced” and the percent apoptotic cells [6] is reported as “significantly high”. The apoptosis induction [7] was “known to be induced”, the “mRNA (RBAp48 gene) expression” value (RBAp48 mRNA in HSG cells; tamoxifen 10^−7 M, northern blotting) was “enhanced expression” and the “RBAp48 mRNA expression” value (RBAp48 mRNA in HSG cells; two hours after Tam stimulation) was “strong RBAp48 mRNA expression”.
